Reference: patent US11325889B2, “Substituted 3-((3-aminophenyl)amino)piperidine-2,6-dione compounds, compositions thereof, and methods of treatment therewith” (Celgene Corporation, priority 2018, dated 2022)
Where two headings read alike, the source gives them in different places.

Target: T1, AR protein in VCaP cells (Homo sapiens, UniProt P10275)
T1 construct: endogenous in cells; host or cells: VCaP cells
T1 sequence (P10275 1-920): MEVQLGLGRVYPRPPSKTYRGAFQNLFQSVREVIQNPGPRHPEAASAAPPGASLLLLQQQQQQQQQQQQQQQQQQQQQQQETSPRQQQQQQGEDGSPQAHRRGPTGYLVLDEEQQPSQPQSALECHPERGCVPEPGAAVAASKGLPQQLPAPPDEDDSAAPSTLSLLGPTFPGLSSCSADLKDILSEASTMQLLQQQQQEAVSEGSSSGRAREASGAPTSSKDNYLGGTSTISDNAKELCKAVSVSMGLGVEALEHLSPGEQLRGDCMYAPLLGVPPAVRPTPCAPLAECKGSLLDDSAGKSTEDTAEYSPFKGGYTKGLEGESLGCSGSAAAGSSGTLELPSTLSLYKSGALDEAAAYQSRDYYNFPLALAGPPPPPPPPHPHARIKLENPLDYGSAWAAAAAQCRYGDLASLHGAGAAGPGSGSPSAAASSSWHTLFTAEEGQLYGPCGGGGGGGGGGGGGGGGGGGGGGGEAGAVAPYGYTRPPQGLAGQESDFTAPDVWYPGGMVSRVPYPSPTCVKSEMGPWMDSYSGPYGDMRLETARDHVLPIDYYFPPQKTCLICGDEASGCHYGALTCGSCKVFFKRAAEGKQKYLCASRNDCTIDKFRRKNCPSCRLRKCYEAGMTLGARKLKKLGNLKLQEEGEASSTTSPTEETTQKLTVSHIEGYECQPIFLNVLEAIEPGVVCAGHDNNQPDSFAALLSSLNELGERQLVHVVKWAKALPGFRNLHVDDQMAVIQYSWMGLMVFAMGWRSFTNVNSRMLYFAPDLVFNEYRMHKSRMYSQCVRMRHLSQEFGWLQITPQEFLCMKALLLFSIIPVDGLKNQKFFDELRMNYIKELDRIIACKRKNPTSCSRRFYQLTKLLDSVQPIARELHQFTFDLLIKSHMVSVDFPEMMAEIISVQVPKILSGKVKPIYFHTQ
Test: VCAP AR Degradation Assay (AR ELISA, 24 h)
Assay type: cell-based
Settings: for Y (lowest measured AR level normalized to DMSO control): AR degradation efficiency; for DC50: concentration of compound when AR level = 50% of DMSO control
In short: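 VCaP cells in DMEM with 8% FBS exposed for 24 h at 37° C to a 10-point, 1:3 series (final top concentration […]; 0.1% DMSO control). Lysate AR measured by sandwich ELISA and normalized to DMSO as percent of control. DC50, EC50 and lowest AR level (Y) from four-parameter logistic fit.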

Row | Y (lowest measured AR level normalized to DMSO control) | DC50 (read-out: DC50) [nM] | SMILES | DC50 [nM]
1 | * (0<Y<=25%) | < 100 | CCc1cc(N2C(=S)N(c3cnc(C#N)c(C(F)(F)F)c3)C(=O)C2(C)C)ccc1OCCC1CCN([C@@H](C)C(=O)Nc2cccc(N[C@H]3CCC(=O)NC3=O)c2)CC1 [Cmpd 46, (S)-2-(4-(2-(4-(3-(6-cyano-5-(trifluoromethyl)pyridin-3-yl)-5,5-dimethyl-4-oxo-2-thioxoimidazolidin-1-yl)-2-ethylphenoxy)ethyl)piperidin-1-yl)-N-(3-((S)-2,6-dioxopiperidin-3-ylamino)phenyl)propanamide] | 
2 | * (0<Y<=25%) | < 100 | CCc1cc(N2C(=S)N(c3cnc(C#N)c(C(F)(F)F)c3)C(=O)C2(C)C)ccc1OCC[C@H]1CCN(CC(=O)Nc2cccc(NC3CCC(=O)NC3=O)c2)[C@H](C)C1 (stereo partly drawn) [Cmpd 76, 2-((2R,4S)-4-(2-(4-(3-(6-cyano-5-(trifluoromethyl)pyridin-3-yl)-5,5-dimethyl-4-oxo-2-thioxoimidazolidin-1-yl)-2-ethylphenoxy)ethyl)-2-methylpiperidin-1-yl)-N-(3-(2,6-dioxopiperidin-3-ylamino)phenyl)acetamide] | 
3 | ** (25%<Y<=35%) | 100 to 500 | CC1(C)C(=O)N(c2cnc(C#N)c(C(F)(F)F)c2)C(=S)N1c1ccc(OCC2CCN(CC(=O)Nc3cccc(NC4CCC(=O)NC4=O)c3)CC2)cc1 (stereo not shown) [Cmpd 6, 2-(4-((4-(3-(6-cyano-5-(trifluoromethyl)pyridin-3-yl)-5,5-dimethyl-4-oxo-2-thioxoimidazolidin-1-yl)phenoxy)methyl)piperidin-1-yl)-N-(3-(2,6-dioxopiperidin-3-ylamino)phenyl)acetamide] | 
4 | ** (25%<Y<=35%) | < 100 | CCc1cc(N2C(=S)N(c3cnc(C#N)c(C(F)(F)F)c3)C(=O)C2(C)C)ccc1OCC1CCN(CC(=O)Nc2cccc(NC3CCC(=O)NC3=O)c2)CC1 (stereo not shown) [Cmpd 80, 2-(4-((4-(3-(6-cyano-5-(trifluoromethyl)pyridin-3-yl)-5,5-dimethyl-4-oxo-2-thioxoimidazolidin-1-yl)-2-ethylphenoxy)methyl)piperidin-1-yl)-N-(3-(2,6-dioxopiperidin-3-ylamino)phenyl)acetamide] | 
5 | * (0<Y<=25%) | < 100 | CCc1cc(N2C(=S)N(c3cnc(C#N)c(C(F)(F)F)c3)C(=O)C23CCC3)ccc1OCCC1CCN([C@@H](C)C(=O)Nc2cccc(NC3CCC(=O)NC3=O)c2)CC1 (stereo partly drawn) [Cmpd 83, (2S)-2-(4-(2-(4-(7-(6-cyano-5-(trifluoromethyl)pyridin-3-yl)-8-oxo-6-thioxo-5,7-diazaspiro[3.4]octan-5-yl)-2-ethylphenoxy)ethyl)piperidin-1-yl)-N-(3-(2,6-dioxopiperidin-3-ylamino)phenyl)propanamide] | 
6 | * (0<Y<=25%) | < 100 | CCc1cc(N2C(=S)N(c3cnc(C#N)c(C(F)(F)F)c3)C(=O)C23CCC3)ccc1OCCC1CCN(CC(=O)Nc2cccc(NC3CCC(=O)NC3=O)c2)C(C)(C)C1 (single isomer, unassigned) [Cmpd 54] | 
7 | * (0<Y<=25%) | < 100 | C[C@@H](C(=O)Nc1cccc(NC2CCC(=O)NC2=O)c1)N1CCC(CCOc2ccc(N3C(=S)N(c4cnc(C#N)c(C(F)(F)F)c4)C(=O)C3(C)C)cc2CCF)CC1 (stereo partly drawn) [Cmpd 73, (2S)-2-(4-(2-(4-(3-(6-cyano-5-(trifluoromethyl)pyridin-3-yl)-5,5-dimethyl-4-oxo-2-thioxoimidazolidin-1-yl)-2-(2-fluoroethyl)phenoxy)ethyl)piperidin-1-yl)-N-(3-(2,6-dioxopiperidin-3-ylamino)phenyl)propanamide] | 

Continued, compound first:

Row | SMILES | Y (lowest measured AR level normalized to DMSO control) | DC50 (read-out: DC50) [nM] | DC50 [nM]
8 | CC1(C)C(=O)N(c2ccc(C#N)c(C(F)(F)F)c2)C(=S)N1c1ccc(OC2CCN(CC(=O)Nc3cccc(NC4CCC(=O)NC4=O)c3)CC2)c(F)c1 (stereo not shown) [Cmpd 1, 2-(4-(4-(3-(4-cyano-3-(trifluoromethyl)phenyl)-5,5-dimethyl-4-oxo-2-thioxoimidazolidin-1-yl)-2-fluorophenoxy)piperidin-1-yl)-N-(3-(2,6-dioxopiperidin-3-ylamino)phenyl)acetamide] | ** (25%<Y<=35%) | < 100 | 
9 | CCc1cc(N2C(=S)N(c3ccc(C#N)c(C(F)(F)F)c3)C(=O)C2(C)C)ccc1OCC1CCN(CC(=O)Nc2cccc(NC3CCC(=O)NC3=O)c2)CC1 (stereo not shown) [Cmpd 11, 2-(4-((4-(3-(4-cyano-3-(trifluoromethyl)phenyl)-5,5-dimethyl-4-oxo-2-thioxoimidazolidin-1-yl)-2-ethylphenoxy)methyl)piperidin-1-yl)-N-(3-(2,6-dioxopiperidin-3-ylamino)phenyl)acetamide] | ** (25%<Y<=35%) | 100 to 500 | 
10 | CCc1cc(N2C(=S)N(c3cnc(C#N)c(C(F)(F)F)c3)C(=O)C23CCC3)ccc1OCC[C@H]1C[C@H]2CC[C@@H](C1)N2CC(=O)Nc1cccc(NC2CCC(=O)NC2=O)c1 (single isomer, unassigned) [Cmpd 67] | ** (25%<Y<=35%) |  | < 100
11 | CCc1cc(N2C(=S)N(c3ccc(C#N)c(C(F)(F)F)c3)C(=O)C2(C)C)ccc1OCC[C@H]1CCN(CC(=O)Nc2cc(NC3CCC(=O)NC3=O)ccc2F)[C@H](C)C1 (stereo partly drawn) [Cmpd 82, 2-((2R,4S)-4-(2-(4-(3-(4-cyano-3-(trifluoromethyl)phenyl)-5,5-dimethyl-4-oxo-2-thioxoimidazolidin-1-yl)-2-ethylphenoxy)ethyl)-2-methylpiperidin-1-yl)-N-(5-(2,6-dioxopiperidin-3-ylamino)-2-fluorophenyl)acetamide] | ** (25%<Y<=35%) | 100 to 500 | 
12 | CCc1cc(N2C(=S)N(c3cnc(C#N)c(C(F)(F)F)c3)C(=O)C2(C)C)ccc1OCC[C@H]1C[C@H]2CC[C@@H](C1)N2CC(=O)Nc1cccc(NC2CCC(=O)NC2=O)c1 (stereo partly drawn) [Cmpd 65, 2-((1R,3r,5S)-3-(2-(4-(3-(6-cyano-5-(trifluoromethyl)pyridin-3-yl)-5,5-dimethyl-4-oxo-2-thioxoimidazolidin-1-yl)-2-ethylphenoxy)ethyl)-8-azabicyclo[3.2.1]octan-8-yl)-N-(3-(2,6-dioxopiperidin-3-ylamino)phenyl)acetamide] | * (0<Y<=25%) |  | < 100
13 | CCc1cc(N2C(=S)N(c3ccc(C#N)c(C(F)(F)F)c3)C(=O)C2(C)C)ccc1OCCC1CCN(CC(=O)Nc2cccc(NC3CCC(=O)NC3=O)c2)CC1 (stereo not shown) [Cmpd 17, 2-(4-(2-(4-(3-(4-cyano-3-(trifluoromethyl)phenyl)-5,5-dimethyl-4-oxo-2-thioxoimidazolidin-1-yl)-2-ethylphenoxy)ethyl)piperidin-1-yl)-N-(3-(2,6-dioxopiperidin-3-ylamino)phenyl)acetamide] | * (0<Y<=25%) | < 100 | 
14 | CC1(C)C(=O)N(c2cnc(C#N)c(C(F)(F)F)c2)C(=S)N1c1ccc(OCCC2CCN(CC(=O)Nc3cccc(NC4CCC(=O)NC4=O)c3)CC2)c(CCF)c1 (stereo not shown) [Cmpd 58, 2-(4-(2-(4-(3-(6-cyano-5-(trifluoromethyl)pyridin-3-yl)-5,5-dimethyl-4-pxo-2-thioxoimidazolidin-1-yl)-2-(2-fluoroethyl)phenoxy)ethyl)piperidin-1-yl)-N-(3-(2,6-dioxopiperidin-3-ylamino)phenyl)acetamide] | * (0<Y<=25%) | < 100 | 
